Measured values as given in US20090054403A1, “Treatment of Post-Traumatic Stress Disorder” (priority 2007, published 2009).

Legend:
[1] = system: dopamine and norepinephrine in the left ventricle; assay: Left ventricle catecholamines after two iv doses; format: in vivo, Sprague-Dawley rats; details: 15 mg/kg iv x2, 12 h apart, 6 h after last
[2] = Tissue and plasma compound levels in beagle dogs, 10, 30, 60 mg/kg/day; format: in vivo
Experimental: Thirty-two male beagle dogs, weighing 10-12 kg, were randomly assigned to one of the following 4 treatment groups (n=8 per group): nepicastat at 0 mg/kg/day (placebo), 10 mg/kg/day (5 mg/kg b.i.d.), 30 mg/kg (15 mg/kg b.i.d.), or 60 mg/kg/day (30 mg/kg b.i.d.). Dog numbers 1-16 were assigned as dose group A and dog numbers 17-32 as dose group B. The terminal surgery for tissue harvest was performed over 2 days with 16 animals studied per day. Two or 3 days before the first compound administration each dog was weighed and skin regions overlying both cephalic, saphenous and jugular veins were shaved. Dosing consisted of oral administration of one capsule with the second given 8-10 hr later. Dogs were dosed as scheduled on days 1-3. On day 4, prior to the AM dose, 3 ml of blood were obtained from a jugular vein for determination of baseline plasma compound levels. […]
Ventricles were homogenized in 50 mM Tris-HCl, 5 mM Na2EDTA buffer (pH 7.4 at 4° C.) using a Polytron P-10 tissue disrupter (setting 10, 2×15 second bursts). […] Aquasol scintillation fluid was added to each vial and radioactivity determined by liquid scintillation counting. Saturation binding isotherms were analyzed after first converting total ligand concentrations to free ligand concentrations (total−bound=free). […]

Cl.NCc1c[nH]c(=S)n1[C@H]1CCc2c(F)cc(F)cc2C1 [nepicastat, (S)-5-Aminomethyl-1-(5,7-difluoro-1,2,3,4-tetrahydronaphth-2-yl)-2,3-dihydro-2-thioxo-1H-imidazole hydrochloride]
decrease in norepinephrine levels, left ventricle [1]: 51% | increase in dopamine levels, left ventricle [1]: 472% | increase in dopamine/norepinephrine ratio, left ventricle [1]: 1117% | dose proportionality of concentration in plasma (Day 4) and tissue and plasma (Day 5) ([2]; 10, 30, 60 mg/kg/day, exceptions kidney medulla, plasma day 4): dose-proportional | levels in all tissues examined relative to plasma ([2]; Day 5): higher than those in plasma
